Assay type in all cases: cell-based
The test system of one test is S. aureus. Kind of test: MIC, S. aureus. As to conditions: Staphylococcus aureus; S. aureus 29213. From the text: (§1) Primary screening of the compounds of the invention included the evaluation of antibacterial activity of analogs through determination of microbial inhibition concentration (MIC) as per CLSI guidelines. The screening panel included the relevant BRD pathogens: 1) M. haemolytica (e.g., 12726, 46571 and 49023, all AHDRCC; and 33396 (ATCC)); and 2) P. multocida (e.g., 34135 and 46572 (both AHDRCC) and 43137 (ATCC)). In some instances, H. somni (A700025K) pathogens were also included in the screening panel. The AHDRCC strains originated from the Zoetis BRD/SRD surveillance program and refer to the Animal Health Development and Research Culture Collection. In addition, the screen assessed S. aureus (29213 ATCC) as a representative Gram-positive isolate, E.faecalis (19433 ATCC) as a commensal gram-positive gastrointestinal bacterium and E. coli (100, 3110 and 25922 (ATCC)) for the evaluation of efflux potential. The screening panel BRD pathogens were assessed in determining antibacterial activity of the Formula (1) compounds.
(§2) All relevant BRD pathogens were initially screened at a top concentration of 64 μg/mL of a Formula (1) compound in an eleven-point dilution series. […] If an Example was purified further, the MICs moved […] essentially two dilutions across all strains tested in the screening panel.
(§3) In-Vitro MIC Model Compounds were analyzed for antibacterial activity against a panel of animal health specific gram-positive and gram-negative clinical strains by diluting compounds in DMSO to an appropriate stock concentration to determine the Minimal Inhibitory Concentration (MIC) via a semi-automated broth micro-dilution method (CLSI reference method) with QC strains and anti-microbial agent(s). Specifically, bacteria were grown overnight on TSA w/5% sheep blood agar plates and diluted in saline buffer to a McFarland Standard 0.5, then further diluted in cation-ion adjusted Mueller Hinton Broth to a final concentration of approximately 5×10^5 CFU/mL. 100 μL of inoculated media was added to 96-well plate(s) with 3 μL of serially diluted compound in each row. Depending on strain (see CLSI reference method), bacteria were incubated 18-22 hours at 35-37° C. in ambient air, with 5% CO2 or anaerobically (up to 48 hours).

The test system of the next test is TNF-α. Kind of test: Whole bovine blood assay, LPS-induced TNF-α. As to conditions: Bos taurus, fresh whole bovine blood, LPS stimulant; top drug concentration 250 μM. Summed up:
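Fresh heparinized bovine whole blood was preincubated with compound 4 h at 37 °C, then stimulated with LPS (final 1 μg/mL) for 18 h at 37 °C. Plasma TNF-α was quantified by MSD U-Plex chemiluminescent immunoassay, normalized to total protein (BCA), and IC50 taken for LPS-induced TNF-α inhibition.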

A further test has as its system P. multocida. Kind of test: MIC, P. multocida strains. As to conditions: Pasteurella multocida.
Description: as §1, §2, §3

Setting [1] is: P. multocida 46572, murine efficacy challenge strain.

As to `CC[C@H]1OC(=O)[C@H](C)[C@@H](O[C@H]2C[C@@](C)(OC)[C@](O)(CN3CCCCC3)[C@H](C)O2)[C@H](C)[C@@H](O[C@@H]2O[C@H](C)C[C@H](N(C)S(=O)(=O)c3ccc(Cl)cc3)[C@H]2O)[C@](C)(O)C[C@@H](C)CN[C@H](C)[C@@H](O)[C@]1(C)O` [Example C-4, 4-chloro-N-((2S,3R,4S,6R)-2-(((2R,3S,4R,5R,8R,10R,11R,12S,13S,14R)-2-ethyl-3,4,10-trihydroxy-13-(((2R,4R,5S,6S)-5-hydroxy-4-methoxy-4,6-dimethyl-5-(piperidin-1-ylmethyl)tetrahydro-2H-pyran-2-yl)oxy)-3,5,8, 10, 12, 14-hexamethyl-15-oxo-1-oxa-6-azacyclopentadecan-11-yl)oxy)-3-hydroxy-6-methyltetrahydro-2H-pyran-4-yl)-N-methylbenzenesulfonamide], the MIC against S. aureus, against P. multocida (P. multocida 43137) and against P. multocida (setting [1]) was more than 128 µg/mL each time. In addition, the IC50 (in general, the point on the concentration scale where inhibition reaches its midpoint) in the test with TNF-α amounted to 5 µM.

As for `CC[C@H]1OC(=O)[C@H](C)[C@@H](O)[C@H](C)[C@@H](O[C@@H]2O[C@H](C)C[C@H](N(C)S(=O)(=O)c3ccccc3)[C@H]2Oc2ccc(OC)cc2)[C@](C)(O)C[C@@H](C)CN[C@H](C)[C@@H](O)[C@]1(C)O` [Example A-9, N-((2S,3R,4S,6R)-2-(((2R,3S,4R,5R,8R,10R,11R,12S,13S,14R)-2-ethyl-3,4,10,13-tetrahydroxy-3,5,8,10, 12, 14-hexamethyl-15-oxo-1-oxa-6-azacyclopentadecan-11-yl)oxy)-3-(4-methoxyphenoxy)-6-methyltetrahydro-2H-pyran-4-yl)-N-methylbenzenesulfonamide], the minimal inhibitory concentration (MIC) with S. aureus, against P. multocida (P. multocida 43137) and in the test with P. multocida (setting [1]) was more than 64 µg/mL each time. The compound further registered a half-maximal inhibitory concentration (IC50) in the test on TNF-α of 4 µM.

`CCCNC[C@]1(O)[C@H](C)O[C@@H](O[C@H]2[C@H](C)[C@@H](O[C@@H]3O[C@H](C)C[C@H](NC)[C@H]3O)[C@](C)(O)C[C@@H](C)CN[C@H](C)[C@@H](O)[C@](C)(O)[C@@H](CC)OC(=O)[C@@H]2C)C[C@@]1(C)OC` [Example M9, (2R,3S,4R,5R,8R,10R,11R,12S,13S,14R)-2-ethyl-3,4, 10-trihydroxy-13-(((2R,4R,5S,6S)-5-hydroxy-4-methoxy-4,6-dimethyl-5-((propylamino)methyl)-tetrahydro-2H-pyran-2-yl)oxy)-11-(((2S,3R,4S,6R)-3-hydroxy-6-methyl-4-(methylamino)tetrahydro-2H-pyran-2-yl)oxy)-3,5,8,10,12,14-hexamethyl-1-oxa-6-azacyclopentadecan-15-one] had a half-maximal inhibitory concentration (IC50) in the test with TNF-α of 250 µM.

As for `CCCNC[C@]1(O)[C@H](C)O[C@@H](O[C@H]2[C@H](C)[C@@H](O[C@@H]3O[C@H](C)C[C@H](N(C)S(=O)(=O)c4ccc(C)cc4)[C@H]3O)[C@](C)(O)C[C@@H](C)CN[C@H](C)[C@@H](O)[C@](C)(O)[C@@H](CC)OC(=O)[C@@H]2C)C[C@@]1(C)OC` [Example B-26, N-((2S,3R,4S,6R)-2-(((2R,3S,4R,5R,8R,10R,11R,12S,13S,14R)-2-ethyl-3,4,10-trihydroxy-13-(((2R,4R,5S,6S)-5-hydroxy-4-methoxy-4,6-dimethyl-5-((propylamino)methyl)tetrahydro-2H-pyran-2-yl)oxy)-3,5,8,10,12,14-hexamethyl-15-oxo-1-oxa-6-azacyclopentadecan-11-yl)oxy)-3-hydroxy-6-methyltetrahydro-2H-pyran-4-yl)-N,4-dimethylbenzenesulfonamide], the MIC against S. aureus, against P. multocida (P. multocida 43137) and against P. multocida (setting [1]) was more than 64 µg/mL in each case. For the same compound, the IC50 in the test with TNF-α amounted to 20 µM.

As for `CC[C@H]1OC(=O)[C@H](C)[C@@H](O[C@H]2C[C@@](C)(OC)[C@](O)(CN3CCCCC3)[C@H](C)O2)[C@H](C)[C@@H](O[C@@H]2O[C@H](C)C[C@H](N(C)S(=O)(=O)Nc3ccc(C(F)(F)F)cc3)[C@H]2O)[C@](C)(O)C[C@@H](C)CN[C@H](C)[C@@H](O)[C@]1(C)O` [Example C-11, (2R,3S,4R,5R,8R,10R,11R,12S, 13S, 14R)-2-ethyl-3,4, 10-trihydroxy-13-[(2R,4R,5S,6S)-5-hydroxy-4-methoxy-4,6-dimethyl-5-(piperidin-1-ylmethyl)oxan-2-yl]oxy-11-[(2S,3R,4S,6R)-3-hydroxy-6-methyl-4-[methyl-[[4-(trifluoromethyl)phenyl]sulfamoyl]amino]oxan-2-yl]oxy-3,5,8, 10, 12, 14-hexamethyl-15-oxo-1-oxa-6-azacyclopentadecane], the MIC against S. aureus, in the test on P. multocida (P. multocida 43137) and with P. multocida (setting [1]) was more than 64 µg/mL each time. In addition, the IC50 in the test on TNF-α came out at 17 µM.

For `CCCNC[C@]1(O)[C@H](C)O[C@@H](O[C@H]2[C@H](C)[C@@H](O[C@@H]3O[C@H](C)C[C@H](N(C)S(=O)(=O)Nc4ccc(C(F)(F)F)cc4)[C@H]3O)[C@](C)(O)C[C@@H](C)CN[C@H](C)[C@@H](O)[C@](C)(O)[C@@H](CC)OC(=O)[C@@H]2C)C[C@@]1(C)OC` [Example B-50, (2R,3S,4R,5R,8R,10R,11R,12S,13S, 14R)-2-ethyl-3,4,10-trihydroxy-13-[(2R,4R,5S,6S)-5-hydroxy-4-methoxy-4,6-dimethyl-5-(propylaminomethyl)oxan-2-yl]oxy-11-[(2S,3R,4S,6R)-3-hydroxy-6-methyl-4-[methyl-[[4-(trifluoromethyl)phenyl]sulfamoyl]amino]oxan-2-yl]oxy-3,5,8, 10, 12, 14-hexamethyl-15-oxo-1-oxa-6-azacyclopentadecane], the minimal inhibitory concentration (MIC) against S. aureus, in the test with P. multocida (P. multocida 43137) and against P. multocida (setting [1]) was more than 64 µg/mL throughout.

The record behind these values is US20250236616A1, “IMMUNOMODULATING AZALIDES” (Zoetis Services LLC, priority 2021, published 2025).
